In ChEMBL document CHEMBL1146450, “Ponicidin and oridonin are responsible for the antiangiogenic activity of Rabdosia rubescens, a constituent of the herbal supplement PC SPES” (J Nat Prod, 2004):
Active and inactive are the calls of the source. No cut-off for these calls is given here.

Experiments:
HMEC-1 [1] = test: Antiangiogenic activity in HMEC1 cells assessed as inhibition of capillary-like network formation at 1.5 ug/ml after 18 hrs; type: functional, cell-based; conditions: Homo sapiens
HMEC-1 [2] = test: Antiangiogenic activity in HMEC1 cells assessed as inhibition of capillary-like network formation at 2.5 ug/ml after 18 hrs; type: functional, cell-based; conditions: Homo sapiens
[3] = Cytotoxicity against HMEC1 cells by resazurin assay; type: cell-based; conditions: Homo sapiens, HMEC-1

C=C1C(=O)[C@@]23[C@@H]4OC5O[C@@]2(O)[C@@H](O)[C@@H]2C(C)(C)CC[C@@H](O)[C@]52[C@@H]3CC[C@@H]14
Activity (HMEC-1 [1]): Active
Activity (HMEC-1 [2]): Active

C=C1C(=O)[C@]23[C@H](O)[C@H]1CC[C@H]2[C@@]12CO[C@]3(O)[C@@H](O)[C@@H]1C(C)(C)CC[C@@H]2O [ORIDONIN]
Activity (HMEC-1 [1]): Active
Activity (HMEC-1 [2]): Active
IC50 [3]: > 4 µg/mL
